Source: BindingDB's records for doi:10.1016/s0014-2999(99)00610-x (Hungarian Academy of Sciences, 1999)
“And” between values parts separate entries of the source, which are not always exact repeats. Equal values may be shown once. Where a SMILES comes first, the peptide text is derived from it. [ ]: non-standard residue; d: D form. Tic = O=C(O)[C@@H]1Cc2ccccc2CN1

Tests used:
Mu-type opioid receptor [1] = molecular target: Mu-type opioid receptor (Rattus norvegicus, UniProt P33535)
[2] = molecular target: Kappa-type opioid receptor (Rattus norvegicus, UniProt P34975)
Kappa-type opioid receptor (Rattus norvegicus, UniProt P34975), sequence (P34975 whole entry): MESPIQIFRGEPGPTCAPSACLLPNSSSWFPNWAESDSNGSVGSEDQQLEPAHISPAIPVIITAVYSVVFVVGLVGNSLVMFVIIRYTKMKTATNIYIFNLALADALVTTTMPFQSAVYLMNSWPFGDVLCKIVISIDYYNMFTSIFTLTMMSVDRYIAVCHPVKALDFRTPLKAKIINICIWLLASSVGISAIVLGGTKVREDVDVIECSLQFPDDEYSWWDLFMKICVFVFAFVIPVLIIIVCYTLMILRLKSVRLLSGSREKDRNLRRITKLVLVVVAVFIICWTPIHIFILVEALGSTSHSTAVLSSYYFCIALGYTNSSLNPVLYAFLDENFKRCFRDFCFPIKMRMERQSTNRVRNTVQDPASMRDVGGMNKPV

Mu-type opioid receptor [3] = molecular target: Mu-type opioid receptor (Cavia porcellus, UniProt P97266)
Mu-type opioid receptor (Cavia porcellus, UniProt P97266), sequence (P97266 whole entry): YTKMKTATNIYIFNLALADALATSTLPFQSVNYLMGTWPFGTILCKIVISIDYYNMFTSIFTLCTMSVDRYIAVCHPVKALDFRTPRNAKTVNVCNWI

[4] = molecular target: Kappa-type opioid receptor (Cavia porcellus, UniProt P41144)
Kappa-type opioid receptor (Cavia porcellus, UniProt P41144), sequence (P41144 whole entry): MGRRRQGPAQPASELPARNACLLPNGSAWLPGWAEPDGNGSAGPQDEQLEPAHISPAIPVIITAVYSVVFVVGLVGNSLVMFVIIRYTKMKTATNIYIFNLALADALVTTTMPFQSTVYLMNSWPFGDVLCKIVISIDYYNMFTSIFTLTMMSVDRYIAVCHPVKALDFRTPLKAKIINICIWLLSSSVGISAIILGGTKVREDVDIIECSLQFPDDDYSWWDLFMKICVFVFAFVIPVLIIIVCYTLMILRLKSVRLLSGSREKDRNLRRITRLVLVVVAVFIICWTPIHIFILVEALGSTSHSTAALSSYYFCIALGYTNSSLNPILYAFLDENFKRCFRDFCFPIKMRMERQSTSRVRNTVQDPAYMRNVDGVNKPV

[5] = molecular target: Delta-type opioid receptor (Rattus norvegicus, UniProt P33533)
Delta-type opioid receptor (Rattus norvegicus, UniProt P33533), sequence (P33533 whole entry): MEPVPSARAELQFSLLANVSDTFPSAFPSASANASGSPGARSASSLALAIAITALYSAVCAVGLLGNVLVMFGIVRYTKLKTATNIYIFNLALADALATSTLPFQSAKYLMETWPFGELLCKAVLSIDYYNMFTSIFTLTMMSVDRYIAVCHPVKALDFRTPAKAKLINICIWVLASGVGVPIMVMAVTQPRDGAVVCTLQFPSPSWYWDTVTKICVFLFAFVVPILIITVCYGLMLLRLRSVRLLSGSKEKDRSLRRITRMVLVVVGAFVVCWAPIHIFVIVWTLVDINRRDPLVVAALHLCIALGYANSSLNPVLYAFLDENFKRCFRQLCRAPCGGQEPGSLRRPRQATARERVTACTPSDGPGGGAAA

[6] = molecular target: Delta-type opioid receptor (Sus scrofa, UniProt P79291)
Delta-type opioid receptor (Sus scrofa, UniProt P79291), sequence (P79291 whole entry): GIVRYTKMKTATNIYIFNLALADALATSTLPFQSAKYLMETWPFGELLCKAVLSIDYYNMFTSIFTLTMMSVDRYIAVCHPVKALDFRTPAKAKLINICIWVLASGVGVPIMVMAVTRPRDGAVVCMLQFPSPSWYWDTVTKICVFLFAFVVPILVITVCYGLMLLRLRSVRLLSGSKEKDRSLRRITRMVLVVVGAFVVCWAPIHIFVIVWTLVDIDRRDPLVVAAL

Mu-type opioid receptor (Rattus norvegicus, UniProt P33535), sequence (P33535 whole entry): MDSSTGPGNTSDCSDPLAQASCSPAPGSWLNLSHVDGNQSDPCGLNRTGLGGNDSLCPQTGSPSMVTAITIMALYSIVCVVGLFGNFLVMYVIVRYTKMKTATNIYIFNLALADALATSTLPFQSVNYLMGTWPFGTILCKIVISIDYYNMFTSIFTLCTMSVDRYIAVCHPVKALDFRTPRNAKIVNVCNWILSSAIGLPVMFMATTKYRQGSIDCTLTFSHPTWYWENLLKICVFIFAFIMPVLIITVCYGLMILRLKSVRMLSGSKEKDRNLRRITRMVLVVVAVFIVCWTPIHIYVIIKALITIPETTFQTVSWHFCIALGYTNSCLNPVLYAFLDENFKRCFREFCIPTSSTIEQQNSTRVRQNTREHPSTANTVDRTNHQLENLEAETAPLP

| SMILES | Ki (Mu-type opioid receptor [3]) | Ki [5] | Ki [6] | other results |
| --- | --- | --- | --- | --- |
| COc1cccc2c1[C@]13CCN(CC4CC4)C(C2)[C@]1(OC)CCC(=O)C3 | 26.6 nM |  |  | Ki (Mu-type opioid receptor [1]): 8.1 nM and 5.4 nM; Ki [2]: 2190 nM |
| C[C@@H](O)[C@H](NC(=O)[C@H]1NC(=O)[C@H]([C@@H](C)O)NC(=O)[C@H](CCCN=C(N)N)NC(=O)[C@@H](Cc2c[nH]c3ccccc23)NC(=O)[C@H](Cc2ccc(O)cc2)NC(=O)[C@@H](NC(=O)[C@H](N)Cc2ccccc2)CSSC1(C)C)C(N)=O | 48.1 nM |  |  | Ki (Mu-type opioid receptor [1]): 43.8 nM |
| Oc1ccc2c3c1OC1c4[nH]c5c(c4CC4(O)CN(CCC314)C(C1CC1)C2)CC1(O)CN2CCC13c1c(ccc(O)c1OC53)CC2C1CC1 (stereo not given) [CAS_105618-26-6] |  |  |  | Ki [4]: 770 nM; Ki [2]: 172 nM |
| CN1CC[C@]23c4c5ccc(O)c4O[C@H]2[C@@H](O)CCC3[C@H]1C5 (stereo not given in full) [DIHYDROMORPHINE] | 6 nM |  |  |  |
| CC(C)C[C@H](NC(=O)[C@H](Cc1ccccc1)NC(=O)CNC(=O)[C@@H](CO)NC(=O)[C@@H](N)Cc1ccc(O)cc1)C(=O)N[C@H](C(=O)O)[C@@H](C)O [DSLET-OH] |  | 9.8 nM | 6.3 nM |  |
| N[C@@H](Cc1ccc(O)cc1)C(=O)N1Cc2ccccc2C[C@H]1C(=O)N[C@@H](Cc1ccccc1)C(=O)N[C@@H](Cc1ccccc1)C(=O)O [TIPP] (H-Y[Tic]FF-OH) |  | 2830 nM | 7060 nM |  |
| CC(C)[C@H](NC(=O)[C@H](CCC(=O)O)NC(=O)[C@H](Cc1ccccc1)NC(=O)[C@@H](C)NC(=O)[C@@H](N)Cc1ccc(O)cc1)C(=O)N[C@H](C(=O)NCC(N)=O)C(C)C [Tyr-D-Ala-Phe-Glu-Val-Val-GlyNH2] |  | 1190 nM | 2880 nM |  |
| C[C@@H](NC(=O)[C@@H](N)Cc1ccc(O)cc1)C(=O)NCC(=O)N(C)[C@@H](Cc1ccccc1)C(=O)NCCO [[tyrosyl-3,5-3H(N)]-D-Ala2-Mephe4-glyol5-enkephalin] | 2.6 nM |  |  |  |
